In PubChem BioAssay (NCI):
Where “and” joins values, the source holds several entries; their conditions need not be identical. Equal entries are not always repeated.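 Briefly, cells in 96-well plates were exposed to five compound concentrations for 48 h, and endpoints were estimated by linear interpolation. GI50 is the concentration that inhibits growth by half. The concentration for full growth arrest is given as TGI.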

Legend:
Assay in all cases: inhibition of tumour cell growth, NCI panel, 48 h
K-562 leukemia = tested on: K-562 leukemia
SW-620 colon = tested on: SW-620 colon
SN12C renal = tested on: SN12C renal
NCI-H522 lung = tested on: NCI-H522 lung
MALME-3M melanoma = tested on: MALME-3M melanoma
HOP-92 NSCLC = tested on: HOP-92 NSCLC
SNB-75 CNS = tested on: SNB-75 CNS
NCI-H460 lung = tested on: NCI-H460 lung
U251 CNS = tested on: U251 CNS
ACHN renal = tested on: ACHN renal

SMILES | TGI (K-562 leukemia) | TGI (SW-620 colon) | TGI (SN12C renal) | TGI (NCI-H522 lung) | TGI (MALME-3M melanoma) | TGI (HOP-92 NSCLC) [µM] | TGI (SNB-75 CNS) | TGI (NCI-H460 lung) | TGI (U251 CNS) | TGI (ACHN renal) | GI50 (K-562 leukemia) | GI50 (SW-620 colon) | GI50 (SN12C renal) | GI50 (NCI-H522 lung) | GI50 (MALME-3M melanoma) | GI50 (HOP-92 NSCLC) | GI50 (SNB-75 CNS) | GI50 (NCI-H460 lung) | GI50 (U251 CNS) | GI50 (ACHN renal)
O=C1c2ccccc2S(=O)(=O)c2cc(-c3nn[nH]n3)ccc21 | > 100 µM | > 100 µM | > 100 µM | > 100 µM | > 100 µM | > 100 | > 100 µM | > 100 µM | > 100 µM | > 100 µM | – | – | – | – | – | – | – | – | – | –
Cc1cc(C)c(-n2c(-c3ccc(Br)cc3)cs/c2=N\N=C2C=C(C(C)(C)C)C(=O)C(C(C)(C)C)=C2)c(C)c1 | > 100 µM | > 100 µM | > 100 µM | > 100 µM | > 100 µM | > 89.8 | 57.1 µM | > 100 µM | > 100 µM | > 100 µM | – | – | – | – | – | – | – | – | – | –
C=C1C(=O)O[C@H]2[C@H]1CC/C(Cn1cc(-c3ccccc3C(F)(F)F)nn1)=C\CC[C@@]1(C)O[C@@H]21 | 13.1 µM | 3.33 µM | 7.46 µM | 3.13 µM | 3.56 µM | 3.47 | 17.5 µM | 17.7 µM | 3.83 µM | 2.93 µM | 2.4 µM | 1.24 µM | 2.48 µM | 1.38 µM | 1.7 µM | 1.48 µM | 2.97 µM | 3.97 µM | 1.83 µM | 1.45 µM
CCCCCCCc1cc2c3c(nc4ccccc42)C(=O)c2cccnc2-c3n1 | > 24.2 µM | 6.34 µM | 10.8 µM | 3.07 µM | 10.9 µM | 17 | 10.1 µM | 3.1 µM | 8.05 µM | 8.19 µM | 1.29 µM | 1.5 µM | 4.81 µM | 1.14 µM | 5.07 µM | 6.34 µM | 5.11 µM | 1.05 µM | 2.96 µM | 4.08 µM
O=C1C(=Cc2c(O)cc(O)cc2O)C(=O)c2ccccc21 | > 93.2 µM | > 56.5 µM | 37.6 µM | > 60.3 µM | > 59.3 µM | > 58 | > 59.7 µM | > 67.7 µM | > 57.2 µM | > 57.6 µM | – | – | – | – | – | – | – | – | – | –
COc1ccc2c(c1)C(=O)c1c-2n(CCCI)c(=O)c2cc([N+](=O)[O-])ccc12 | 50 µM and > 100 µM | 7.91 µM and 15.6 µM | – | 50 µM and 98.8 µM | 18.4 µM and 43.3 µM | – | 2.37 µM and 15.2 µM | – | 5.64 µM and 1.27 µM | 1.03 µM and 0.239 µM | 0.0596 µM and 0.19 µM | 0.0524 µM and 0.0345 µM | 0.105 µM and 0.312 µM | – | 1.36 µM and 2.85 µM | 0.0738 µM and 0.715 µM | 0.198 µM and 0.368 µM | 0.0117 µM and 0.0296 µM | 0.138 µM and 0.047 µM | 0.138 µM and 0.0293 µM
Cc1cn(-c2cc(NC(=O)c3ccc(C)c(Nc4nccc(-c5cccnc5)n4)c3)cc(C(F)(F)F)c2)cn1 | > 10 µM and 1.03 µM | > 40.9 µM | > 10 µM and 29 µM | > 10 µM and 24.4 µM | 5.04 µM and 4.1 µM | > 100 | > 10 µM and 11.5 µM | > 10 µM and 10.7 µM | > 10 µM and 7.32 µM | > 10 µM and 27.2 µM | 2.15 µM | 4.44 µM and 3.43 µM | > 10 µM and 13 µM | 3.46 µM and 4.18 µM | 1.69 µM and 0.78 µM | – | 8.04 µM and 3.47 µM | 3.31 µM and 2.33 µM | 2.97 µM and 2.47 µM | > 10 µM and 9.36 µM
COC(=O)[C@@H](C)C[C@H](Cc1ccccc1)NC(=O)c1csc([C@@H](C[C@H](C(C)C)N(C)C(=O)[C@@H](NC(=O)[C@H]2CCCCN2C)C2CC2)OC(C)=O)n1 | > 16.5 µM | > 16.5 µM | > 16.5 µM | 0.000988 µM and < 0.00165 µM | – | > 16.5 | > 16.5 µM | > 16.5 µM | > 16.5 µM | > 16.5 µM | 0.000313 µM and 0.00165 µM | 0.000292 µM and 0.00165 µM | 0.00115 µM and 0.00165 µM | 0.000247 µM and < 0.00165 µM | 0.000312 µM | – | 0.000383 µM and 0.00165 µM | 0.000362 µM and 0.00165 µM | 0.000457 µM and 0.00165 µM | 0.00104 µM and 0.00165 µM
N#CC1CCCCCCCCCCC(=O)N(CCCl)C1=O (stereo not drawn) | > 100 µM | > 100 µM | > 100 µM | > 100 µM | > 100 µM | > 100 | > 100 µM | > 100 µM | > 100 µM | > 100 µM | – | – | – | – | – | – | – | – | – | –
CC(=O)OCc1cc2ccccc2nc1C(Br)(Br)Br | 45.4 µM | 44.8 µM | 26.3 µM | 34 µM | 18.1 µM | 31.2 | 39.9 µM | 33.8 µM | 28.1 µM | 27.3 µM | – | – | – | – | – | – | – | – | – | –
N#CC1(C#N)C(C#N)(C#N)C12CCCCCC2 | > 30.3 µM | 5.29 µM | 33.7 µM | 7.88 µM | 31 µM | 29.4 | > 55.3 µM | > 66.5 µM | 20.5 µM | 23.2 µM | – | – | – | – | – | – | – | – | – | –
CC(C)(c1ccccc1)c1ccc(OC#N)cc1 | > 100 µM | > 100 µM | > 100 µM | 24.4 µM | > 100 µM | > 100 | > 74.4 µM | > 59.1 µM | > 100 µM | > 100 µM | – | – | – | – | – | – | – | – | – | –
